The text below walks through data of patent US9315498B2, “Arlethynyl derivatives” (Hoffmann-La Roche Inc., priority 2010, dated 2016).

The target of this assay is human mGlu5a receptor (Homo sapiens (Human), UniProt P41594). Put plainly: Intracellular Ca2+ mobilization assay (mGlu5 PAM). It counts as cell-based. To be noted: for EC50: HEK-293 cells stably transfected with human mGlu5a, L-glutamate added at EC20 after pre-incubation with test compound, read-out: EC50 (nM) mGlu5PAM; for Emax: maximal response in % of the maximal stimulatory effect obtained with saturating concentrations of L-glutamate, read-out: Eff. (%). On the procedure:
A monoclonal HEK-293 cell line stably transfected with a cDNA encoding for the human mGlu5a receptor was generated; for the work with mGlu5 Positive Allosteric Modulators (PAMs), a cell line with low receptor expression levels and low constitutive receptor activity was selected to allow the differentiation of agonistic versus PAM activity. Cells were cultured according to standard protocols (Freshney, 2000) in Dulbecco's Modified Eagle Medium with high glucose supplemented with 1 mM glutamine, 10% (vol/vol) heat-inactivated bovine calf serum, Penicillin/Streptomycin, 50 μg/ml hygromycin and 15 μg/ml blasticidin (all cell culture reagents and antibiotics from Invitrogen, Basel, Switzerland).
About 24 hrs before an experiment, 5×10^4 cells/well were seeded in poly-D-lysine coated, black/clear-bottomed 96-well plates. The cells were loaded with 2.5 μM Fluo-4AM in loading buffer (1×HBSS, 20 mM HEPES) for 1 hr at 37° C. and washed five times with loading buffer. The cells were transferred into a Functional Drug Screening System 7000 (Hamamatsu, Paris, France), and 11 half logarithmic serial dilutions of test compound at 37° C. were added and the cells were incubated for 10-30 min. with on-line recording of fluorescence. Following this pre-incubation step, the agonist L-glutamate was added to the cells at a concentration corresponding to EC20 (typically around 80 μM) with on-line recording of fluorescence; in order to account for day-to-day variations in the responsiveness of cells, the EC20 of glutamate was determined immediately ahead of each experiment by recording of a full dose-response curve of glutamate.
Responses were measured as peak increase in fluorescence minus basal (i.e. fluorescence without addition of L-glutamate), normalized to the maximal stimulatory effect obtained with saturating concentrations of L-glutamate. Graphs were plotted with the % maximal stimulatory using XLfit, a curve fitting program that iteratively plots the data using Levenburg Marquardt algorithm. The single site competition analysis equation used was y=A+((B−A)/(1+((x/C)D))), where y is the % maximal stimulatory effect, A is the minimum y, B is the maximum y, C is the EC50, x is the log10 of the concentration of the competing compound and D is the slope of the curve (the Hill Coefficient). From these curves the EC50 (concentration at which half maximal stimulation was achieved), the Hill coefficient as well as the maximal response in % of the maximal stimulatory effect obtained with saturating concentrations of L-glutamate were calculated.
A depression of the signal observed after addition of the EC20 concentration of L-glutamate was indicative of an inhibitory activity of the test compound.

human mGlu5a receptor, sequence (P41594 other isoform, or with tags, fused parts or gaps): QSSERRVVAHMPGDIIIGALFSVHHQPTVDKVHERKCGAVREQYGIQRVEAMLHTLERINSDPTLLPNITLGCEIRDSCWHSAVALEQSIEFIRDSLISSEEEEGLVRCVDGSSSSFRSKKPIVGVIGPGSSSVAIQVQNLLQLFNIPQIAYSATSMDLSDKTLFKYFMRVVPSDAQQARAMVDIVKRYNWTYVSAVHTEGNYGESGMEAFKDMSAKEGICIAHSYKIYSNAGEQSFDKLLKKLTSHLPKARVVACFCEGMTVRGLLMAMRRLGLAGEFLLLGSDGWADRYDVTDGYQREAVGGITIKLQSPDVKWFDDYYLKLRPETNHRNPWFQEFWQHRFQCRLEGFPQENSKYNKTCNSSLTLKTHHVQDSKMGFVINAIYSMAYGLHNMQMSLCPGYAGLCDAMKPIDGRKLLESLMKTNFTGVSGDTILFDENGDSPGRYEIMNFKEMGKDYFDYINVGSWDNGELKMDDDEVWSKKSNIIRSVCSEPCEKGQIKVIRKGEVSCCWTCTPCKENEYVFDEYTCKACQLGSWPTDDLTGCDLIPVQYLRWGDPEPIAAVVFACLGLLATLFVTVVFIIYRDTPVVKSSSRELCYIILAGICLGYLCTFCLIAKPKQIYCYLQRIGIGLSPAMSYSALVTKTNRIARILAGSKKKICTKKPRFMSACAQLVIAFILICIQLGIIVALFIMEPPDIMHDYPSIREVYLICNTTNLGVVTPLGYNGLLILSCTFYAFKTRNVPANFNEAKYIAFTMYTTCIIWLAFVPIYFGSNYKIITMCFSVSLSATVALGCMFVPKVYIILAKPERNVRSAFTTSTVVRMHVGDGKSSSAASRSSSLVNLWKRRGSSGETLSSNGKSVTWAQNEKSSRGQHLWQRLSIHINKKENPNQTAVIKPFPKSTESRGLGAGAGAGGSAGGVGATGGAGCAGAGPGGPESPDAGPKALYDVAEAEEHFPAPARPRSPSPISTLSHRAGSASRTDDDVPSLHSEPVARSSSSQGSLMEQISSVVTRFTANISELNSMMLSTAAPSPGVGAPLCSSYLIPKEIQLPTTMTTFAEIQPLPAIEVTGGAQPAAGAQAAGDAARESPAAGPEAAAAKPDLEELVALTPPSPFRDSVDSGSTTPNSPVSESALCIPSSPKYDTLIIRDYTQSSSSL

For the molecule `CN1C(=O)N(c2ccc(C#Cc3ccccc3)cn2)CC1(C)C` [Example 16, 3,4,4-Trimethyl-1-(5-phenylethynyl-pyridin-2-yl)-imidazolidin-2-one], the EC50 came to 35 nM and the Emax came out at 103%. For `CCN1C(=O)N(c2ccc(C#Cc3ccccc3)cn2)CC1(C)C` [Example 17, 3-Ethyl-4,4-dimethyl-1-(5-phenylethynyl-pyridin-2-yl)-imidazolidin-2-one], the concentration for a half-maximal effect (EC50) was determined as 66 nM and the Emax came to 103%.

Take `CC(C)N1C(=O)N(c2ccc(C#Cc3ccccc3)cn2)CC1(C)C` [Example 18, 3-Isopropyl-4,4-dimethyl-1-(5-phenylethynyl-pyridin-2-yl)-imidazolidin-2-one]: the concentration giving a half-maximal response (EC50) is 39 nM and the Emax came to 133%. On to `CC1(C)CC(=O)N(c2ncc(C#Cc3ccccc3)cc2F)C1` [Example 21, 1-(3-Fluoro-5-phenylethynyl-pyridin-2-yl)-4,4-dimethyl-pyrrolidin-2-one], for which the 50% effective concentration (EC50) came to 30 nM and the Emax was determined as 128%. For `CC1(C)CNC(=O)N(c2ccc(C#Cc3ccccc3)cn2)C1` [Example 25, 5,5-Dimethyl-1-(5-phenylethynyl-pyridin-2-yl)-tetrahydro-pyrimidin-2-one] the same measures were 69 nM and 148%. In the case of `CN1CC(C)(C)CN(c2ccc(C#Cc3ccccc3)cn2)C1=O` [Example 26, 1,5,5-Trimethyl-3-(5-phenylethynyl-pyridin-2-yl)-tetrahydro-pyrimidin-2-one], the Emax amounted to 131%. As for `CC1(C)OC(=O)N(c2ccc(C#Cc3ccccc3)cn2)C1(C)C` [Example 28, 4,4,5,5-Tetramethyl-3-(5-phenylethynyl-pyridin-2-yl)-oxazolidin-2-one], the 50% effective concentration (EC50) amounted to 48 nM and the Emax is 31%. With `CC1(C)CN(c2ccc(C#Cc3cncc(F)c3)cn2)C(=O)O1` [Example 29, 3-[5-(5-Fluoro-pyridin-3-ylethynyl)-pyridin-2-yl]-5,5-dimethyl-oxazolidin-2-one], the EC50 was found to be 15 nM and the Emax amounted to 45%.

For the molecule `CC1(C)CN(c2ccc(C#Cc3cncnc3)cn2)C(=O)O1` [Example 30, 5,5-Dimethyl-3-(5-pyrimidin-5-ylethynyl-pyridin-2-yl)-oxazolidin-2-one], the EC50 was 80 nM and the Emax came out at 43%. `Cn1cc(C#Cc2ccc(N3CC(C)(C)OC3=O)nc2)cn1` [Example 31, 5,5-Dimethyl-3-[5-(1-methyl-1H-pyrazol-4-ylethynyl)-pyridin-2-yl]-oxazolidin-2-one]: the EC50 was found to be 26 nM and the Emax amounted to 55%.

Regarding `CC1(C)CN(c2ccc(C#Cc3ccc(F)cc3)cn2)C(=O)O1` [Example 32, 3-[5-(4-Fluoro-phenylethynyl)-pyridin-2-yl]-5,5-dimethyl-oxazolidin-2-one], the EC50 amounted to 19 nM and the Emax was determined as 60%. Take `CC1(C)CN(c2ccc(C#Cc3ccc(F)c(F)c3)cn2)C(=O)O1` [Example 33, 3-[5-(3,4-Difluoro-phenylethynyl)-pyridin-2-yl]-5,5-dimethyl-oxazolidin-2-one]: the EC50 was 32 nM and the Emax stood at 44%.

`CC1(C)CN(c2ccc(C#Cc3cc(F)ccc3F)cn2)C(=O)O1` [Example 34, 3-[5-(2,5-Difluoro-phenylethynyl)-pyridin-2-yl]-5,5-dimethyl-oxazolidin-2-one]: the 50% effective concentration (EC50) was found to be 11 nM and the Emax was 38%. As for `CC1(C)CN(c2ccc(C#Cc3ccc(F)nc3)cn2)C(=O)O1` [Example 35, 3-[5-(6-Fluoro-pyridin-3-ylethynyl)-pyridin-2-yl]-5,5-dimethyl-oxazolidin-2-one], the concentration giving a half-maximal response (EC50) stood at 54 nM and the Emax is 52%. With `O=C1OC2(CC2)CN1c1ccc(C#Cc2cccnc2)cn1` [Example 36, 6-(5-Pyridin-3-ylethynyl-pyridin-2-yl)-4-oxa-6-aza-spiro[2.4]heptan-5-one], the concentration giving a half-maximal response (EC50) worked out at 58 nM and the Emax was 80%.

`CC1(C)CC(=O)N(c2ccc(C#Cc3cncc(F)c3)cn2)C1` [Example 37, 1-[5-(5-Fluoro-pyridin-3-ylethynyl)-pyridin-2-yl]-4,4-dimethyl-pyrrolidin-2-one]: the EC50 was found to be 22 nM and the Emax amounted to 96%. With `CC1(C)CC(=O)N(c2ccc(C#Cc3cccnc3)cn2)C1` [Example 38, 4,4-Dimethyl-1-(5-pyridin-3-ylethynyl-pyridin-2-yl)-pyrrolidin-2-one], the EC50 came out at 33 nM and the Emax came out at 147%. For `CC1(C)CC(=O)N(c2ccc(C#Cc3cncc(Cl)c3)cn2)C1` [Example 39, 1-[5-(5-Chloro-pyridin-3-ylethynyl)-pyridin-2-yl]-4,4-dimethyl-pyrrolidin-2-one], the EC50 is 48 nM and the Emax was found to be 98%.

For `CC1(C)CC(=O)N(c2ccc(C#Cc3cccc(F)c3)cn2)C1` [Example 40, 1-[5-(3-Fluoro-phenylethynyl)-pyridin-2-yl]-4,4-dimethyl-pyrrolidin-2-one], the EC50 amounted to 15 nM and the Emax came to 100%. Take `Cc1cc(C#Cc2ccccc2)cnc1N1CC(C)(C)CC1=O` [Example 41, 4,4-Dimethyl-1-(3-methyl-5-phenylethynyl-pyridin-2-yl)-pyrrolidin-2-one]: the half-maximal effective concentration (EC50) is 58 nM and the Emax stood at 89%. In the case of `CC1(C)CCC(=O)N(c2ccc(C#Cc3ccccc3)cn2)C1` [Example 42, 5,5-Dimethyl-5′-phenylethynyl-3,4,5,6-tetrahydro-[1,2′]bipyridinyl-2-one], the EC50 amounted to 16 nM and the Emax is 139%. The like results for `CC1(C)CCC(=O)N(c2ccc(C#Cc3cccc(F)c3)cn2)C1` [Example 43, 5′-(3-Fluoro-phenylethynyl)-5,5-dimethyl-3,4,5,6-tetrahydro-[1,2′]bipyridinyl-2-one] were, in that order, 12 nM and 100%. In the case of `CN1C(=O)N(c2ccc(C#Cc3ccccc3)cn2)CC12CCCC2` [Example 44, 1-Methyl-3-(5-phenylethynyl-pyridin-2-yl)-1,3-diaza-spiro[4.4]nonan-2-one], the EC50 worked out at 29 nM and the Emax was determined as 92%. Consider `CN1C(=O)N(c2ccc(C#Cc3cccnc3)cn2)CC1(C)C` [Example 48, 3,4,4-Trimethyl-1-(5-pyridin-3-ylethynyl-pyridin-2-yl)-imidazolidin-2-one], for which the EC50 was determined as 14 nM and the Emax is 89%. With `CN1C(=O)N(c2ccc(C#Cc3cncc(F)c3)cn2)CC1(C)C` [Example 49, 1-[5-(5-Fluoro-pyridin-3-ylethynyl)-pyridin-2-yl]-3,4,4-trimethyl-imidazolidin-2-one], the 50% effective concentration (EC50) turned out to be 37 nM and the Emax came out at 91%. Regarding `CN1C(=O)N(c2ccc(C#Cc3cnn(C)c3)cn2)CC1(C)C` [Example 50, 3,4,4-Trimethyl-1-[5-(1-methyl-1H-pyrazol-4-ylethynyl)-pyridin-2-yl]-imidazolidin-2-one], the EC50 was 27 nM and the Emax was determined as 41%. The like results for `CN1C(=O)N(c2ccc(C#Cc3cncc(Cl)c3)cn2)CC1(C)C` [Example 51, 1-[5-(5-Chloro-pyridin-3-ylethynyl)-pyridin-2-yl]-3,4,4-trimethyl-imidazolidin-2-one] were, in that order, 29 nM and 45%. For `CN1C(=O)N(c2ccc(C#Cc3ccnnc3)cn2)CC1(C)C` [Example 52, 3,4,4-Trimethyl-1-(5-pyridazin-4-ylethynyl-pyridin-2-yl)-imidazolidin-2-one], the EC50 was 34 nM and the Emax was 32%. On to `CN1C(=O)N(c2ccc(C#Cc3cccc(F)c3)cn2)CC1(C)C` [Example 53, 1-[5-(3-Fluoro-phenylethynyl)-pyridin-2-yl]-3,4,4-trimethyl-imidazolidin-2-one], for which the EC50 was 29 nM and the Emax was 103%. In the case of `CN1C(=O)N(c2ccc(C#Cc3cccc(Cl)c3)cn2)CC1(C)C` [Example 54, 1-[5-(3-Chloro-phenylethynyl)-pyridin-2-yl]-3,4,4-trimethyl-imidazolidin-2-one], the EC50 was found to be 32 nM and the Emax was 47%. For the molecule `CN1C(=O)N(c2ccc(C#Cc3cncnc3)cn2)CC1(C)C` [Example 55, 3,4,4-Trimethyl-1-(5-pyrimidin-5-ylethynyl-pyridin-2-yl)-imidazolidin-2-one], the EC50 turned out to be 54 nM and the Emax was found to be 110%.
